Columns and labels:
Assay in all cases: Comprehensive analysis (screening) of hORs against n-hexanal
Assay type in all cases: cell-based
[1] = molecular target: T1, OR8B8 (Homo sapiens, UniProt Q15620); conditions: OR8B8, 500 μM n-hexanal, with the TAR-Tat system (hOR/pHEK), n = 1
T1 construct: Lucy tag (N); FLAG (N); Rho tag (N); expressed in transfected cells; host or cells: Flp-In T-REx-293 cells stably expressing RTP1S, Gαolf and Ric8-b
T1 sequence (Q15620 1-311): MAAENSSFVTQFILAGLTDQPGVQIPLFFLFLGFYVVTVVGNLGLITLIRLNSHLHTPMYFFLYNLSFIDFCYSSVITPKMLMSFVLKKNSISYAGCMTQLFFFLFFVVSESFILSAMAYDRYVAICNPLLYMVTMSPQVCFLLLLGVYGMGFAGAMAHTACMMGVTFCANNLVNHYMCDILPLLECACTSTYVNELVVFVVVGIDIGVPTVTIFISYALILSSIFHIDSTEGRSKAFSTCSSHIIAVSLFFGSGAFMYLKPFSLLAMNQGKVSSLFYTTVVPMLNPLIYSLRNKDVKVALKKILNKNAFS
Description: (§1) Transfection was performed as described in the “hOR assay,” but 12.5 ng of 379 hOR plasmids (hOR/pBApo and hOR/pHEK) was transfected with the 12.5 ng pGlosensor^TM-22F cAMP biosensor plasmid (Promega) in 384 plates per well. After loading the GloSensor cAMP substrate and preincubation, the assay buffer was added (30 μL/well). After 10 min of equilibration, luminescence was measured (L0). Then, 50 mM n-hexanal, which was diluted with 10% DMSO/assay buffer, was added (4.7 μL/well). After 9 min, luminescence was measured (L9min). All the L9min values were subtracted by the L0 value (ΔL).

[2] = molecular target: T2, OR10A2 (Homo sapiens, UniProt Q9H208); conditions: OR10A2, 500 μM n-hexanal, with the TAR-Tat system (hOR/pHEK), n = 1
T2 construct: Lucy tag (N); expressed in transfected cells; host or cells: Flp-In T-REx-293 cells stably expressing RTP1S, Gαolf and Ric8-b
T2 sequence (Q9H208 1-303): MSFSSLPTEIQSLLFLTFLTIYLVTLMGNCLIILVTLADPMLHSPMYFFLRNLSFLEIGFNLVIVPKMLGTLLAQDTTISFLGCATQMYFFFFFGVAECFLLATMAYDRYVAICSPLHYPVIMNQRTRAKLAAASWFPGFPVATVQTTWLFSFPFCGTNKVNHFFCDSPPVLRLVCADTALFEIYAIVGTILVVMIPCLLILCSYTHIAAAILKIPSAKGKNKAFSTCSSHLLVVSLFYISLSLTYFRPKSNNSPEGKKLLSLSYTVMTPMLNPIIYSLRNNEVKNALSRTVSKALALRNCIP
Description: as §1

[3] = molecular target: T3, OR5P3 (Homo sapiens, UniProt Q8WZ94); conditions: OR5P3, 500 μM n-hexanal, n = 1
T3 construct: Lucy tag (N); FLAG (N); Rho tag (N); expressed in transfected cells; host or cells: Flp-In T-REx-293 cells stably expressing RTP1S, Gαolf and Ric8-b
T3 sequence (Q8WZ94 1-311): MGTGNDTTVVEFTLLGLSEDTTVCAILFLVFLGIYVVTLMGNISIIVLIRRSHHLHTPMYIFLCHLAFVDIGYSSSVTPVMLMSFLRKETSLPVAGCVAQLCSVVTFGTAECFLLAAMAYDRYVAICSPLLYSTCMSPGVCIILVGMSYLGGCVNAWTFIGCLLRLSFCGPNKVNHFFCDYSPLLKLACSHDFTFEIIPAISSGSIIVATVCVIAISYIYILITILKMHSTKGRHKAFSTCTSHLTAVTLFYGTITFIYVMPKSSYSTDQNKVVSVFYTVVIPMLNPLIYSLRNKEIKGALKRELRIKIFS
Description: as §1

[4] = molecular target: T4, OR10C1 (Homo sapiens, UniProt Q96KK4); conditions: OR10C1, 500 μM n-hexanal, with the TAR-Tat system (hOR/pHEK), n = 1
T4 construct: Lucy tag (N); expressed in transfected cells; host or cells: Flp-In T-REx-293 cells stably expressing RTP1S, Gαolf and Ric8-b
T4 sequence (Q96KK4 1-312): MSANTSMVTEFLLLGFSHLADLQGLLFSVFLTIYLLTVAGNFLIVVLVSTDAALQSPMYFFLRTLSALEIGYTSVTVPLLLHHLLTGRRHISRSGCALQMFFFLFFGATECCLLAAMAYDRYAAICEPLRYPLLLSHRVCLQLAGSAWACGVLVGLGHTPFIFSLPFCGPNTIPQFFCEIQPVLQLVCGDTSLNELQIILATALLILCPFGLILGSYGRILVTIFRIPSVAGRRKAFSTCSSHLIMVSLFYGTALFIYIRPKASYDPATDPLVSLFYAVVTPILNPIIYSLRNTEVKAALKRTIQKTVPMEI
Description: as §1

[5] = molecular target: T5, OR52N4 (Homo sapiens, UniProt Q8NGI2); conditions: OR52N4, 500 μM n-hexanal, with the TAR-Tat system (hOR/pHEK), n = 1
T5 construct: Lucy tag (N); expressed in transfected cells; host or cells: Flp-In T-REx-293 cells stably expressing RTP1S, Gαolf and Ric8-b
T5 sequence (Q8NGI2 1-321): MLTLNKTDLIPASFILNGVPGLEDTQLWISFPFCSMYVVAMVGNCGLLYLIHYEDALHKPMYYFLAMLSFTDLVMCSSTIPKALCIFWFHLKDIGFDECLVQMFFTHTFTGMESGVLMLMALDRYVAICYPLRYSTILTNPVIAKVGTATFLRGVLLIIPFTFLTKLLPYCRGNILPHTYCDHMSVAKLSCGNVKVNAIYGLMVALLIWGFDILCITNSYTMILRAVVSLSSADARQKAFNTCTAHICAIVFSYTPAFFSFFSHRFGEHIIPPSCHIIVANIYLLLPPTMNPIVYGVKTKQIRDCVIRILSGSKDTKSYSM
Description: as §1

[6] = molecular target: T6, OR2M3 (Homo sapiens, UniProt Q8NG83); conditions: OR2M3, 500 μM n-hexanal, with the TAR-Tat system (hOR/pHEK), n = 1
T6 construct: Lucy tag (N); expressed in transfected cells; host or cells: Flp-In T-REx-293 cells stably expressing RTP1S, Gαolf and Ric8-b
T6 sequence (Q8NG83 1-312): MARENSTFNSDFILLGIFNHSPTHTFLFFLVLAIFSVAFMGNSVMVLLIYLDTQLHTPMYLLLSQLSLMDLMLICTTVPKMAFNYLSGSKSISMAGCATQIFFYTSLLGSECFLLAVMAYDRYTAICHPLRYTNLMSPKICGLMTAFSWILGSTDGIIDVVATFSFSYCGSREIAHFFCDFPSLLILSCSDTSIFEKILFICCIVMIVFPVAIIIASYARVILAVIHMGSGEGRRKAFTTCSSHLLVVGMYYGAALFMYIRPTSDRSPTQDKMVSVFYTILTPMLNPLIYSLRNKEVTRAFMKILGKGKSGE
Description: as §1

response value (ΔL) [1]: > 500
response value (ΔL) [2]: > 500
response value (ΔL) ([3]; with the TAR-Tat system (hOR/pHEK)): 2931
response value (ΔL) ([3]; without the TAR-Tat system (control plasmid)): 740
response value (ΔL) [4]: > 500
response value (ΔL) [5]: > 500
response value (ΔL) [6]: −620
SMILES: CCCCCC=O [n-hexanal]

Source: publication PMC11198769, “Enhancement of transcription efficiency by TAR-Tat system increases the functional expression of human olfactory receptors” (PLOS ONE, 2024)
